In patent US12194027B2, “Small molecule inhibitors of GPCR GPR68 and related receptors for treating cancer, glioblastoma, and other indications” (UNIVERSITY OF MARYLAND, BALTIMORE, priority 2019, dated 2025):

Assays:
WM115 melanoma cell line = assay: scratch assay for migration, WM115; assay type: cell-based, human; details: OGM 5 μM, EIPA 10 μM, 20 hours
Description: (§1) Cells were grown to confluence and the cells were denuded with a P200 tip. A medium change was done to add fresh medium, remove loose cells and add compounds OGM (5 μM) and EIPA (10 μM). The area of the scratch was observed 20 hours later.
(§2) Since there are numerous parallels are found between neural crest cells and cancer during migration, we examined whether OGM could inhibit the migration of cells in human melanoma cell lines (Oppitz et al., 2007; Schriek et al., 2005; Sinnberg et al., 2018). […] A2058, MeWo and WM115 cells were grown to confluence and a stripe of cells were denuded with a p200 pipette tip “scratch” and rinsed with PBS. Cells were treated with OGM or EIPA, or DMSO and incubated in low serum media. Imaging was done at 30 minutes after “scratch” and then 20 hours afterwards. Areas were then measured and normalized to the initial area.
(§3) Previous studies with the MV3 melanoma cell line have shown that disruption of proton efflux with EIPA inhibition of NHE1 can also reduce melanoma motility (Ludwig et al., 2013; Schneider et al., 2009; Stock et al., 2007, 2005; Stüwe et al., 2007). […] Although the expression of GPR68 and other proton-sensing receptors have been characterized in various skin cancers (Merkel cell carcinoma, dermatofibrosarcoma protuberans, atypical fibroxanthoma, and pleomorphic dermal sarcoma), expression in melanoma cell lines has not investigated (Nassios et al., 2019).

A2058 melanoma cell line = assay: scratch assay for migration, A2058; assay type: cell-based, human; details: OGM 5 μM, EIPA 10 μM, 20 hours
Description: as §1, §2, §3

MeWo melanoma cell line = assay: scratch assay for migration, MeWo; assay type: cell-based, human; details: OGM 5 μM, EIPA 10 μM, 20 hours
Description: as §1, §2, §3

Lpa1 = Lpa1 (Homo sapiens (Human), UniProt Q92633); assay: Lpa1 activity of OGM analogs (Table 5); assay type: cell-based
zebrafish embryo = zebrafish embryo phenotype (pigmentation, morphology); assay type: in vivo; details: concentrations up to 200× the IC50
GPR68 = GPR68 (Homo sapiens (Human), UniProt Q15743); assay: GPR68 inhibitory activity of OGM analogs (Table 5); assay type: cell-based
Description: GPCR profiling assays were performed by Millipore (St. Louis, MO) using in cells expressing Gα15, a promiscuous G protein that enhances GPCR coupling to downstream Ca2+ signaling pathways.
Since GPCRs represent >30% of targets for FDA-approved small molecules and are known to modulate cell migration, activity against 158 GPCRs was assessed based on their chemical structures. GPCRs (158) were tested for agonist and antagonist activity at 10 μM. […] Chemical segregation analysis of zebrafish phenotype was conducted to further identify the inhibitory activity responsible for the zebrafish phenotype. […] The identities of the R groups in FIG. 2B are shown below in Table 5.
Chem1-GPR68 reporter cells were treated with 20 uM OM8345 for 2 hours and then rinsed with HBSS. […] The GPR68 inhibitory activity of OGM analogs segregated with the ability of the molecule to induce the phenotype in zebrafish. Neural crest progenitors labeled with In situ hybridization of FoxD3 show normal formation of the progenitor pool.

GPR68/OGR1 = GPR68/OGR1 (Homo sapiens (Human), UniProt Q15743); assay: inhibition of GPR68/OGR1 in CHEM1-OGR1 cells, Fluo-8 calcium response to acidified media; assay type: cell-based; details: acidified media pH 6.4, Fluo-8
Description: Briefly, the methods were: On the day before the assay 20,000 cells per well of CHEM1-OGR1 cells were plated in 10% DMEM containing 10% FBS and 1% Pen/Strep into a 96 well plate. After 24 hours media was removed and cells were stained with 80 uL Fluo-8 calcium indicator dye according to manufacturer's protocol. After staining cells were treated with 20 uL of 4× concentration of test compounds. Using kinetic imaging in the Lionheart HCS fluorescence intensity was continuously measure at 10 frames per second, for 5 seconds before 100 μL of acidified media was added to the well resulting in a pH of 6.4. A ratio of fluorescence intensities prior to addition and at peak were calculated and averaged. The resulting data were platted and using a 4 parameter logistic regression EC50 for each test compound was determined.

U87glioblastoma cells = assay: 3D tumoroid growth over time with GPR68 modulators; assay type: cell-based; details: 10 μM/20 μM, imaged every 12 hours
Description: A GPR68-positive allosteric modulator, Ogerin, was tested. U87glioblastoma cells were plated in low attachment round bottom 96-well plates and allowed to form tumor spheroids for 3 days (T0). These spheroids were treated with Vehicle (DMSO), 10 μM/20 μM Ogerin or 10 μM/20 μM Ogremorphin (OGM2). The spheroids were placed in the Lionheart™ HCS equipped with environmental control (5% CO2 at 37° C.) and imaged every 12 hours.

GPR68/OGR1, sequence (Q15743 whole entry): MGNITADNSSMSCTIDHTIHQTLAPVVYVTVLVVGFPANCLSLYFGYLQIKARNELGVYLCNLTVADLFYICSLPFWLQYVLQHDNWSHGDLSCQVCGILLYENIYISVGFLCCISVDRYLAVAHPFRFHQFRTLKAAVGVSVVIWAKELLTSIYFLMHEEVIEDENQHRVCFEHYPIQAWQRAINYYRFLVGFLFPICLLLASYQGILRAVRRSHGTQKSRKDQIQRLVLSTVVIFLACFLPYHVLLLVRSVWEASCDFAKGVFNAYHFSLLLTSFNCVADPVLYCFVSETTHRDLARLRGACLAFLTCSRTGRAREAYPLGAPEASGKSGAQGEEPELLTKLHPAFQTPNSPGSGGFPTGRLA
GPR68, sequence (Q15743 whole entry, looked up): as the sequence (Q15743 whole entry) above
Lpa1, sequence (Q92633 whole entry, species assumed): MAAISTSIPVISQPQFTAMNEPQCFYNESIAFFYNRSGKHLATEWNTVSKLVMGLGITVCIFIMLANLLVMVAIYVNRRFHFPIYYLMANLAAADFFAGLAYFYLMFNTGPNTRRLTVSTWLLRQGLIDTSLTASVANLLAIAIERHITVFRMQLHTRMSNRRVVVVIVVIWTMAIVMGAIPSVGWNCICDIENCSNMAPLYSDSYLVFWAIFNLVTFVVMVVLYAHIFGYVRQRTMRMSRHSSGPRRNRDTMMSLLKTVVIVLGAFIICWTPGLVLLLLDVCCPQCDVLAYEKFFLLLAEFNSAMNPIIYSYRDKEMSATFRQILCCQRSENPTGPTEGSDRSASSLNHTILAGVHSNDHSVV

| Compound | EC50 (GPR68/OGR1) [nM] | also measured |
| --- | --- | --- |
| CCN(c1nc(N)c(C(=O)NC(=N)N)nc1Cl)C(C)C [EIPA, reference compound] |  | migration in scratch assay (WM115 melanoma cell line): inhibited migration; migration in scratch assay (A2058 melanoma cell line): inhibited migration; migration in scratch assay (MeWo melanoma cell line): refractory to the inhibition |
| Cc1noc(-c2ccc(CSCCC(=O)O)cc2)c1NC(=O)OC(C)c1ccccc1Cl (centres unmarked) [LPAi, reference compound] |  | IC50 (Lpa1): 250 nM; zebrafish phenotype (zebrafish embryo): failed to induce a noticeable phenotype |
| CCc1ccc2c(c1)C1(NN=C(c3cccc4ccccc34)S1)C(=O)N2 (centres unmarked) [OGM1] | 170 | IC50 (GPR68): 160 nM |
| Cc1ccc2c(c1)C1(NN=C(c3ccccc3)S1)C(=O)N2 (centres unmarked) [OGM3] |  | IC50 (GPR68): 760 nM; IC50 (Lpa1): 6400 nM |
| CCc1ccc2c(c1)C1(NN=C(c3ccccc3O)S1)C(=O)N2 (centres unmarked) [OGM4] |  | IC50 (GPR68): 3400 nM; IC50 (Lpa1): 1400 nM |
| CN1C(=O)C2(NN=C(c3ccccc3)S2)c2ccccc21 (centres unmarked) [OGM5] |  | IC50 (GPR68): 810 nM |
| CN1C(=O)C2(NN=C(c3cccc4ccccc34)S2)c2ccccc21 (centres unmarked) [OGM6] |  | IC50 (GPR68): 1500 nM |
| O=C1Nc2ccc(Cl)cc2C12NN=C(c1ccccc1)S2 (centres unmarked) [OGM7] | 1620 |  |
| O=C1Nc2ccccc2C12NN=C(c1ccc(Cl)cc1)S2 (centres unmarked) [OGM13] | < 400 |  |
| COc1ccc(C2=NNC3(S2)C(=O)Nc2ccc(OC)cc23)cc1 (centres unmarked) [OGM17] | 900 |  |
| Cc1ccc(C2=NNC3(S2)C(=O)Nc2ccc(F)cc23)cc1 (centres unmarked) [OGM18] | 985 |  |
| O=C1Nc2ccc(Cl)cc2C12NN=C(c1ccc(Cl)cc1)S2 (centres unmarked) [OGM19] | < 400 |  |
| O=C1Nc2ccc(Cl)cc2C12NN=C(c1ccc(F)cc1)S2 (centres unmarked) [OGM21] | 796 |  |
| COc1ccc2c(c1)C1(NN=C(c3ccc(Cl)cc3)S1)C(=O)N2 (centres unmarked) [OGM22] | < 400 |  |
| O=C1Nc2ccc(Cl)cc2C12NN=C(c1cccc3ccccc13)S2 (centres unmarked) [OGM23] | 5040 |  |
| COc1ccc2cc(C3=NNC4(S3)C(=O)Nc3ccc(Cl)cc34)ccc2c1 (centres unmarked) [OGM24] | 45900 |  |
| COc1ccc2cc(C3=NNC4(S3)C(=O)Nc3ccc(F)cc34)ccc2c1 (centres unmarked) [OGM26] | 708 |  |
| CCc1ccc2c(c1)C1(NN=C(c3cccnc3)S1)C(=O)N2 (centres unmarked) [OGM48] | > 10000 |  |
| COc1ccc2c(c1)C1(NN=C(c3cccnc3)S1)C(=O)N2 (centres unmarked) [OGM50] | 1860 |  |
| Nc1nc(NCc2ccccc2)nc(-c2ccccc2CO)n1 [Ogerin] |  | growth in 3D tumoroid culture (U87glioblastoma cells): Stimulates Growth |
| COc1cc(Br)c(S(=O)(=O)Nc2ccc(Cl)c(O[C@@H]3CCN(C)C3)c2)cc1OC [UT2i, reference compound] |  | zebrafish phenotype (zebrafish embryo): failed to induce a noticeable phenotype |

Continued, in another order:

| EC50 (GPR68/OGR1) [nM] | Compound | also measured |
| --- | --- | --- |
| > 10000 | CCc1ccc2c(c1)C1(NN=C(c3ccc4cc(OC)ccc4c3)S1)C(=O)N2 (centres unmarked) [OGM27] |  |
| > 10000 | CCc1ccc2c(c1)C1(NN=C(c3ccc(OC)cc3)S1)C(=O)N2 (centres unmarked) [OGM28] |  |
| > 10000 | COc1ccc(C2=NNC3(S2)C(=O)N(CC=C(C)C)c2ccc(Cl)cc23)cc1 (centres unmarked) [OGM29] |  |
| > 10000 | COc1ccc(C2=NNC3(S2)C(=O)N(CC=C(C)C)c2ccccc23)cc1 (centres unmarked) [OGM30] |  |
| > 10000 | CC(C)=CCN1C(=O)C2(NN=C(c3cccc4ccccc34)S2)c2cc(Cl)ccc21 (centres unmarked) [OGM32] |  |
| > 10000 | CC(C)=CCN1C(=O)C2(NN=C(c3cccc4ccccc34)S2)c2ccccc21 (centres unmarked) [OGM33] |  |
| > 10000 | COc1ccc2cc(C3=NNC4(S3)C(=O)N(CC=C(C)C)c3ccccc34)ccc2c1 (centres unmarked) [OGM34] |  |
| > 10000 | COc1ccc2cc(C3=NNC4(S3)C(=O)N(CC=C(C)C)c3ccc(Cl)cc34)ccc2c1 (centres unmarked) [OGM35] |  |
| 3690 | COc1ccc2c(c1)C1(NN=C(c3cccc4cccnc34)S1)C(=O)N2 (centres unmarked) [OGM38] |  |
| > 10000 | COc1ccc2c(c1)C1(NN=C(c3ccc4ncccc4c3)S1)C(=O)N2 (centres unmarked) [OGM43] |  |
| 2920 | COC(=O)c1ccc2c(c1)C1(NN=C(c3cccc4cccnc34)S1)C(=O)N2 (centres unmarked) [OGM44] |  |
| 10000 | O=C1Nc2ccc(F)cc2C12NN=C(c1ccc3ncccc3c1)S2 (centres unmarked) [OGM45, 5-fluoro-5′-(quinolin-6-yl)-1,2-dihydro-3′H-spiro[indole-3,2′-[1,3,4]thiadiazol]-2-one] |  |
| > 10000 | COC(=O)c1ccc2c(c1)C1(NN=C(c3cccnc3)S1)C(=O)N2 (centres unmarked) [OGM47] |  |
| 1090 | CCc1ccc2c(c1)C1(NN=C(c3ccnc(OC)c3)S1)C(=O)N2 (centres unmarked) [OGM49, 5-ethyl-5′-(2-methoxypyridin-4-yl)-1,2-dihydro-3′H-spiro[indole-3,2′-[1,3,4]thiadiazol]-2-one: 2,2,2-trifluoroacetic Acid] |  |
| 1440 | COc1ccc2c(c1)NC(=O)C21NN=C(c2ccnc(OC)c2)S1 (centres unmarked) [OGM51] |  |
| 822 | NS(=O)(=O)c1ccc2c(c1)C1(NN=C(c3ccccc3)S1)C(=O)N2 (centres unmarked) [OGM52] |  |
| 900 | NS(=O)(=O)c1ccc2c(c1)C1(NN=C(c3cccnc3)S1)C(=O)N2 (centres unmarked) [OGM53] |  |
| 805 | COc1cc(C2=NNC3(S2)C(=O)Nc2ccc(F)cc23)ccn1 (centres unmarked) [OGM57] |  |
| < 400 | CCc1ccc2c(c1)C1(NN=C(c3cccc4cccnc34)S1)C(=O)N2 (centres unmarked) [OGM58] |  |
| < 400 | CCc1ccc2c(c1)C1(NN=C(c3ccncc3)S1)C(=O)N2 (centres unmarked) [OGM60] |  |
